# Measured values: publication PMC8962522, “Direct interaction of TrkA/CD44v3 is essential for NGF-promoted aggressiveness of breast cancer cells” (Journal of Experimental & Clinical Cancer Research : CR, 2022)
# Legend:
# [1] = system: TrkA-His tagged extracellular domain protein (Ala 34-Gly423); assay: MST binding of CD44v3 mimetic peptides to TrkA; conditions: TrkA-His 200 nM labelled with RED-Tris-NTA, PBS-T
# Method: MST was conducted using an NT.115 A Pico MST instrument (Nano Temper Technologies GmbH) equipped with red and blue filter sets. The TrkA-His tagged extracellular domain protein (Ala 34-Gly423) (9966-TK-050; R&D Systems, United Kingdom), diluted to 200 nM in PBS-T buffer (supplied by the vendor), was labeled using a Monolith His-Tag Labeling Kit with RED-Tris-NTA (Nano Temper). The RED-Tris-NTA dye was diluted in PBS-T to 100 nM. The mix was incubated at RT in the dark for 30 min. Next, an extract expressing CD44v3-labeled protein (CD44v3-His) and ligand and/or TrkA was mixed at a 1:1 ratio and incubated at RT in the dark for 15 min. For the binding check, peptides and TrkA-His were used. Capillaries were filled individually and loaded into the instrument. The data were acquired using high MST power and 100% LED. The data were analyzed using MO Control Software (Nano Temper).
# Fig. 2 The C-terminal region of CD44v3 and the His112 residue of TrkA are involved in the CD44v3/TrkA interaction. TrkA/CD44v3 complex association was detected by the proximity ligation assay (PLA) in wild-type TrkA- or TrkA_H112A- and CD44v3-expressing COS-7 cells. Proximity ligation assays were performed after 0, 5 and 30 min of NGF treatment (100 ng/ml). Representative images of signals detected by PLA (A) and their quantification (B). Sequence of CD44 exon variant 3 and deletion mutant Δ3 or Δ4 (C). TrkA/CD44v3 complex association was detected by PLA in wild-type TrkA and CD44v3 wild type or CD44v3 deleted mutant Δ3 or Δ4 expressing COS-7 (D, E). Sequence of CD44v3 mimetic peptides (F) and structure (G). TrkA binding to CD44v3 mimetic peptides by microscale thermophoresis (H) and effects of CD44v3 mimetic peptides 3 (RDRHLSFSGSG) and 4 ([…]) on TrkA/CD44v3 complex formation (I, J). Quantification of PLA was performed using ImageJ software (30 fields per condition of three different experiments). Statistical analyses were performed using one-way ANOVA followed by Bonferroni’s posttest.
# To block the TrkA-CD44v3 association, 4 mimetic peptides of CD44v3 were designed corresponding to zone 1 [(K) STSSNTISAG], zone 2 (WEPNEENEDE), zone 3 (RDRHLSFSGSG) and zone 4 (IDDDEDFISST) (Fig. 2F & G). The binding capacities of the CD44v3 mimetic peptides to TrkA were then measured by MST (Fig. 2H). […] To confirm mimetic peptide 4 binding, we assessed its ability to bind TrkA using nanoscale differential scanning fluorimetry (nanoDSF; Supplementary Fig. 6A & B).
# [2] = system: MDA-MB-231 cell metastasis; assay: Metastasis of MDA-MB-231 xenografts (PCR of human microglobulin); format: in vivo, SCID mice; conditions: lung, brain and liver; mice sacrificed when primary tumors reached the same size
# Method: MDA-MB-231 cells (2 × 10^6) were subcutaneously injected into the flanks of six-week-old female SCID mice. One month after injection, the mice were randomized into 2 groups and injected near the tumor with CD44v3 mimetic peptide 4 (P4) or not (control) five times in a 3-day interval. Tumor volume was determined throughout the experiment by measuring the length (l) and width (w) and was calculated as π/6 × l × w × […]. Animals were sacrificed using isoflurane anesthesia when the tumors reached a similar size, and the organs were immediately removed and stored in liquid nitrogen.
# Each organ was placed in a Precellys tube with QIAzol (1 mL) for lysis using a Precellys machine (3×). […]
# To assess the role of TrkA/CD44v3 in vivo, SCID mice were injected with MDA-MB-231 cells to generate xenografts. Primary tumor development and metastasis (to the lung, brain and liver) were analyzed (Fig. 6). […] The development of primary tumors was measured throughout the experiments. […] We also assessed the metastatic burden. […] Micrometastases were detected at the end of the experiment by PCR of human microglobulin in xenograft mice treated with or without the CD44v3 mimetic peptide (Fig. 6E). […]
# Fig. 6 CD44v3 mimetic peptide 4 blocks MDA-MB-231 tumor growth and metastasis. […] Body weight (B) and tumor volume (C) were measured following CD44v3 mimetic peptide administration (10 mice per group). […]
sequence,measurement,setting,value
"IDDDEDFISST [Peptide 4, mimetic peptide 4 (…) corresponding to the C-terminal region of CD44v3]",binding to TrkA by MST (in words),[1],could bind TrkA
same,metastatic burden (in words),[2],decreased the metastatic burden at each analyzed location
